Assay results as given in patent US12415777B2, “Fluorene derivative, and production method and use for same” (Osaka Gas Chemicals Co., Ltd., priority 2020, dated 2025).

What was measured:
[1] = 5% mass reduction temperature (TG-DTA); format: physicochemical; details: nitrogen atmosphere, 50 to 400° C., heating rate 10° C./min
Protocol: (5% Mass Reduction Temperature)
The temperature, at which the mass of the sample is reduced by 5% by mass, was measured using a Thermogravimeter-Differential Thermal Analyzer (TG-DTA) (manufactured by PerkinElmer, Inc., “TGA-4000”) in a nitrogen atmosphere, under the condition of a measurement temperature range of 50 to 400° C. with a heating rate of 10° C./min.

Solvent solubility test = format: physicochemical; design: key: A: Soluble; B: Soluble, but undissolved residue was visually confirmed; C: Insoluble; details: 3% by mass, stood overnight at room temperature (15 to 25° C.), visually observed; for Solubility in Dioxane: 1,4-dioxane; for Solubility in IPA: isopropanol; for Solubility in MEK: methyl ethyl ketone; for Solubility in MIBK: methyl isobutyl ketone; for Solubility in THF: tetrahydrofuran
Protocol: (Solvent Solubility Test)
For each sample and solvent, a sample and a solvent shown in Table 1 below were mixed in a concentration of 3% by mass, and a mixture was shaken by hand for about 10 minutes, and then allowed to stand overnight at a room temperature (temperature of 15 to 25° C.). After that, the solubility of the sample was visually observed and evaluated according to the following criteria. • A: Soluble • B: Soluble, but undissolved residue was visually confirmed • C: Insoluble (Flexural Test)
The results of the solubility test of the fluorene derivatives obtained in Examples 1 to 3 and Comparative Example 1 are shown in Table 1. In Table 1, IPA represents isopropanol, MEK represents methyl ethyl ketone, MIBK represents methyl isobutyl ketone, dioxane represents 1,4-dioxane, and THF represents tetrahydrofuran. As NIPAM-FL, the one prepared in Example 3A was used.

Row | 5% mass reduction temperature [1] [°C] | Solubility in Dioxane (Solvent solubility test) | Solubility in Acetone (Solvent solubility test) | Solubility in Chloroform (Solvent solubility test) | Solubility in Ethanol (Solvent solubility test) | Solubility in Ethyl acetate (Solvent solubility test) | Solubility in Hexane (Solvent solubility test) | Solubility in Methanol (Solvent solubility test) | Solubility in Toluene (Solvent solubility test) | Solubility in Water (Solvent solubility test) | Solubility in IPA (Solvent solubility test) | Solubility in MEK (Solvent solubility test) | Solubility in MIBK (Solvent solubility test) | Solubility in THF (Solvent solubility test) | SMILES
1 | 318 | C | C | A | A | C | C | A | C | C | C | C | A | A | CN(C)C(=O)CCC1(CCC(=O)N(C)C)c2ccccc2-c2ccccc21 [DMAA-FL, 9,9-bis[2-(N,N-dimethylcarbamoyl)ethyl]fluorene]
2 | 294 | A | A | A | A | A | C | A | A | C | A | A | A | A | CCN(CC)C(=O)CCC1(CCC(=O)N(CC)CC)c2ccccc2-c2ccccc21 [DEAA-FL, 9,9-bis[2-(N,N-diethylcarbamoyl)ethyl]fluorene]
3 | 320 | C | C | C | C | C | C | C | C | C | C | C | B | C | NC(=O)CCC1(CCC(N)=O)c2ccccc2-c2ccccc21 [AAD-FL, 9,9-di-(β-carbamoyl-ethyl)fluorene, reference compound]
4 | 257 | C | C | C | C | C | C | A | C | C | C | C | B | C | CC(C)NC(=O)CCC1(CCC(=O)NC(C)C)c2ccccc2-c2ccccc21 [NIPAM-FL, 9,9-bis[2-(N-isopropylcarbamoyl)ethyl]fluorene]
